Reference: patent publication US11622966B2 (A2A Pharmaceuticals, Inc., priority 2018, dated 2023)
Entries after “also recorded” stand apart in the source; their conditions may differ.

Columns and labels:
TACC3 = target: T1, TACC3 (Homo sapiens, UniProt Q9Y6A5); assay: Target engagement assay (drug-target stabilization with increased temperature); type: binding; conditions: JIMT-1 cells
T1 construct: endogenous in cells; host or cells: JIMT-1

[1] = system: JIMT-1, MDA-MB-436, MDA-MB-157 and BT-474 T-DM1R cell lines; assay: Cell viability assay (Cell Titer Glo), breast cancer cell line panel; type: cell-based, human; conditions: all cell lines tested, 72 hours, Cell Titer Glo (FIG. 6A)
[2] = system: NCI-60 human cancer cell line panel; assay: NCI-60 cancer cell line panel five-dose screening (SRB); type: cell-based; conditions: read-out: GI50 (50% growth inhibition), NCI-60 five-dose screen, ~90% / almost all cell lines
Method: Detailed screening methodology can be accessed from the National Cancer Institute webpage. Briefly, 24 h after cell seeding into 96-well plates, they were treated with 5-log M concentration range of the compound for 2 days. Cytotoxicity was assessed using sulphorhodamine B (SRB) assay.

[3] = target: T2, Purified TACC3 recombinant protein (Homo sapiens, UniProt Q9Y6A5); assay: Isothermal titration calorimetry (ITC); type: binding; conditions: 25° C.
T2 construct: purchased Origene TP310754
Method: Titrations were carried out using Microcal 200 equipment (GE Healthcare, Austria) at 25° C. For each titration, 10 injections were made with 6 min spacing. The reference power was set at 2 μcal/sec, and the sample cell was continuously stirred at 500 rpm. In order to assess the binding efficiency between drug and protein, background data obtained by protein injected into buffer alone was subtracted from the experimental isotherms. The data was analyzed using Origin 7 Software provided along with the ITC200, and binding parameters such as association constant (Ka), number of binding sites (N) and enthalpy (ΔH) were calculated.

JIMT-1 cells [4] = assay: Colony formation assay; type: cell-based, human; conditions: 12 days, versus other two inhibitors at the same doses (FIG. 6B)
Method: For monolayer culture, single-cell suspensions of JIMT-1 cells (3×10^3 cells/well) were plated in a 12-well plate. […] For both experimental setups, the media were refreshed every 4 days, and cells were incubated for 12 days. Cells were then fixed with 2% paraformaldehyde for 15 min and stained with 1% crystal violet (Merck, Darmstadt, Germany) for 15 min at RT. Surviving colonies (composed of at least 50 cells) were counted with ImageJ software (NIH).

[5] = system: JIMT-1 breast cancer cell lines; assay: Cell viability assay (Cell Titer Glo), JIMT-1; type: cell-based; conditions: Homo sapiens, JIMT-1 breast cancer cells, 72 hours, read-out: IC50, proliferation / cell viability of JIMT-1
Method: As mentioned before, none of the available TACC3 inhibitors, such as KHS101 and SPL-B has yet advanced to the clinical studies. […] For this purpose, it was performed in-house screening of a series of small molecules by testing their anti-proliferative effects in breast cancer cells in which TACC3 is aberrantly expressed (Ma et al., 2003; Song et al., 2018). Specifically, JIMT-1 cell line was chosen for screening the effect of compounds in cell viability due to its high TACC3 protein level compared to other tested breast cancer cell lines as well as its in vivo tumorigenicity (Saatci et al., 2018; Tanner et al., 2004) (will be discussed in FIGS. 8 and 9-10, respectively).
(§1) KHS101 and SPL-B were dissolved in 100% DMSO to yield a stock concentration of 50 mM. Newly synthesized molecules were dissolved in 100% DMSO to yield a stock concentration of 10 mM. For cell viability assay, JIMT-1 (3×10^3 cells/well), BT-474 T-DM1R (6×10^3 cells/well), MDA-MB-436 (4×10^3 cells/well), MDA-MB-157 (3×10^3 cells/well) and MCF-12A (5×10^3 cells/well) cells were seeded, and 24 hours after cell seeding inhibitor treatments were performed at different concentrations. Cell viability was measured 72 hours after treatment with Cell Titer Glo assay as recommended by the manufacturer.

[6] = Plasma protein binding by equilibrium dialysis; type: in vitro ADME; conditions: human, 37° C.
[7] = Stability in mouse liver microsomes; type: in vitro ADME; conditions: MLM
JIMT-1 cells [8] = assay: Western blot of mitotic arrest, DNA damage and apoptosis markers; type: cell-based, human; conditions: 24 hours, Western blot (FIG. 6C)
[9] = Kinetic solubility in sodium phosphate buffer; type: physicochemical; conditions: sodium phosphate buffer pH 7.4, 25° C., 2 h
JIMT-1 xenografts = assay: Breast cancer xenograft experiments (JIMT-1 in mammary fat pad); type: in vivo, female athymic nude mice
Method: Six-to-eight-week-old female athymic nude mice were housed with a temperature-controlled and 12-hour light/12-hour dark cycle environment. This study was carried out in accordance with Institutional Animal Care and Use Committee of Bilkent University and performed according to the institution's guidelines and animal research principles. For in vivo tumor growth, 4×10^6 JIMT-1 cells were prepared in 150 μl of 1:1 DMEM and Matrigel (Corning, N.Y., USA), v/v) and injected into the mammary fat pads (MFP) of female nude mice. Mouse weight and tumor volume were measure daily using calipers. Tumor volumes were calculated as length×width×0.5. Once the tumor volume had reached about 100 mm^3, xenografts were randomized into groups.

[10] = Stability in human liver microsomes; type: in vitro ADME; conditions: HLM
[11] = system: normal breast epithelial cells, MCF-12A; assay: Cell viability assay, normal breast cell line; type: cell-based
Method: Next, the specificity of BO-264 towards cancer cell lines over normal cells were tested.
as §1

[12] = system: glioblastoma (GBM) xenografts; conditions: Polson et al., 2018; cited from earlier work
[13] = 5 mg/kg (oral) every two days for 30 days (FIG. 9)

With COc1ccc(-c2cc(Nc3ccnc(N4CCOCC4)n3)on2)cc1 [BO-264, 3-(4-methoxyphenyl)-N-(2-morpholinopyrimidin-4-yl)isoxazol-5-amine] the TACC3-BO-264 binding (TACC3) was “validated”, the “IC50 values compared with KHS101 and SPL-B” value [1] was “significantly lower IC50 values than the two available TACC3 inhibitors” and the GI50 [2] was under 1000 nM. For the same compound, the “N (number of binding sites)” value [3] was 0.704, the ΔH [3] was 49290 kcal/mol and the ΔS [3] was 1.65E5 cal/mol/deg. The “K (association constant)” value ([3]; titration of TACC3 into BO-264) was 6.23E8, the “average colony number of JIMT-1 cells” value (JIMT-1 cells [4]) was “significantly lower” and the IC50 [5] was 232 nM. For the same compound, the fraction unbound [6] was 0.0113, the “stability in mouse liver microsomes” value [7] was “low stability” and the “induction of mitotic arrest, DNA damage and apoptosis markers” value (JIMT-1 cells [8]) was “at lower doses compared to other two TACC3 inhibitors; also recorded: in a dose-dependent manner”. The solubility [9] was “low solubility”, the “body weight of mice” value (JIMT-1 xenografts; 2 mg/kg (oral or i.v) or 5 mg/kg (oral) every two days for 30 days (FIG. 10B)) was “did not have any negative effect” and the “tumor growth rate compared with control group” value (JIMT-1 xenografts; 2 mg/kg i.v every two days for 30 days (FIG. 10A)) was “decreased”. For the same compound, the “tumor growth rate compared with control group” value (JIMT-1 xenografts; 2 mg/kg oral every two days for 30 days (FIG. 10A)) was “decreased”, the “body weight of mice” value (JIMT-1 xenografts; [13]) was “no negative effects” and the “tumor growth compared to SPL-B” value (JIMT-1 xenografts; [13]) was “significant reduction of tumor growth”. For the same compound, the “tumor growth rate compared with control group” value (JIMT-1 xenografts; 5 mg/kg (oral) every two days for 30 days (FIG. 10A)) was “the most significant effect on tumor growth”, the “tumor growth compared to vehicle-treated mice” value (JIMT-1 xenografts; 25 mg/kg oral for 23 days (FIG. 11A)) was “very significant reduction of tumor growth” and the “tumor weights compared to vehicle group” value (JIMT-1 xenografts; 25 mg/kg oral for 23 days (FIG. 11B)) was “significantly lower”. For the same compound, the “mice weight / tolerability” value (JIMT-1 xenografts; 25 mg/kg oral for 23 days (FIG. 11C)) was “well tolerated”, the “stability in human liver microsomes” value [10] was “low stability” and the inhibition at 10 µM ([11]; Homo sapiens, MCF-12A, 72 h, read-out: growth inhibition of MCF-12A cells) was under 50%. The “effect on normal breast cell line” value ([11]; normal breast cell line) was “minor effects”.

In the case of CC(C)CNc1ccnc(NCc2csc(-c3ccccc3)n2)n1 [KHS101, reference compound], the “induction of mitotic arrest, DNA damage and apoptosis markers” value (JIMT-1 cells [8]) is listed as “at considerably higher doses; also recorded: only observed at very high doses” and the “tumor growth of glioblastoma (GBM) xenografts” value [12] is listed as “suppressed”.
